CN(C/C=C/C#CC(C)(C)C)Cc1cccc2ccccc12.Cl
solubility (mole fraction)
Conditions	283.15 K	288.15 K	293.15 K	298.15 K	303.15 K	308.15 K	313.15 K	318.15 K	323.15 K
in DMSO	–	–	0.0199	0.0226	0.0252	0.0284	0.0319	0.0354	0.0401
in acetonitrile	0.0013	0.00153	0.00179	0.00213	0.00254	0.00304	0.00377	0.00455	0.00532
in cyclohexanol	–	–	–	–	0.0381	0.048	0.0556	0.0654	0.0774
in ethanol	0.0198	0.0222	0.0245	0.0298	0.0342	0.0414	0.0493	0.0572	0.0678
in isobutanol	0.0101	0.0128	0.0159	0.0213	0.0276	0.0354	0.045	0.0559	0.0693
in isooctanol	0.00196	0.00403	0.00498	0.00649	0.00867	0.0109	0.0143	0.0178	0.0221
in isopentanol	0.0073	0.00942	0.0118	0.0149	0.0189	0.0242	0.0298	0.0389	0.0493
in isopropanol	0.0031	0.00391	0.00487	0.00627	0.00831	0.0106	0.0144	0.0183	0.0245
in n-butanol	0.0123	0.0168	0.0217	0.0251	0.0313	0.0377	0.0466	0.0568	0.0685
in n-hexanol	0.00683	0.00916	0.0115	0.0148	0.0185	0.0229	0.0291	0.0373	0.0469
in n-pentanol	0.0158	0.0208	0.0255	0.0304	0.0357	0.0428	0.0511	0.0601	0.0697
in n-propanol	0.0194	0.0214	0.0233	0.027	0.0351	0.0427	0.0519	0.0615	0.0735
in sec-butanol	0.0037	0.0047	0.00608	0.0077	0.00999	0.0133	0.0176	0.0227	0.0288
